In a compilation of properties of binary mixtures (doi:10.1016/j.jct.2013.10.027):

Assay: xn = mol fraction of the nth substance listed
Details: 101 kPa

CCCC[n+]1ccn(C)c1.O=S(=O)([N-]S(=O)(=O)C(F)(F)F)C(F)(F)F + OCC(F)(F)F
x2 = 0
Details	viscosity [mPa·s]
278.15 K	143
288.15 K	82.4
293.15 K	64.6
298.15 K	51.6
303.15 K	41.9
308.15 K	34.6
313.15 K	28.9
318.15 K	24.4
323.15 K	20.9
328.15 K	18
333.15 K	15.7

OCC(F)(F)F + CCCC[n+]1ccn(C)c1.O=S(=O)([N-]S(=O)(=O)C(F)(F)F)C(F)(F)F
viscosity [mPa·s]
Details	x1 = 0.0877	x1 = 0.2626	x1 = 0.4753	x1 = 0.6153	x1 = 0.7568	x1 = 0.8748	x1 = 1
278.15 K	111.4	–	–	–	–	5.37	3.28
283.15 K	84.8	51.2	24.63	14.14	7.74	4.62	2.81
288.15 K	66	40.93	20.36	11.94	6.67	4.02	2.42
293.15 K	52.3	33.18	17.03	–	5.8	3.53	2.11
298.15 K	42.28	–	14.48	8.81	–	3.12	1.84
303.15 K	34.67	22.96	12.43	7.68	4.45	2.78	1.62
308.15 K	28.83	19.43	10.77	6.75	3.94	2.49	1.43
313.15 K	24.27	16.63	–	5.99	3.53	2.25	1.27
318.15 K	20.67	14.38	–	5.35	3.18	2.04	1.13
323.15 K	17.78	12.54	7.38	4.81	2.88	1.85	–
328.15 K	15.43	11.03	6.6	4.34	2.62	1.69	0.925
333.15 K	13.51	–	5.94	3.95	2.4	1.54	0.824
